Assay results taken from publication PMC7259601 (PLoS ONE, 2020).

Assays:
[1] = Rat pharmacokinetics; type: in vivo, Wistar rats; settings: for AUC(0-inf) / Cmax / Tmax / AUC(0-t): Wistar; for AUC(0-inf): read-out: Plasma AUCinf; for AUC(0-t): read-out: Plasma AUClast
Description: Blood samples were collected at 0, 0.08 (for IV only), 0.25, 0.5, 1, 2, 4, and 6 (Only for PO) 8 and 24 hr for IV and PO group and at three rats were euthanized by using excess CO2 asphyxiation, each at 0.25, 1 and 4 hr post dose and brain was collected. The study was conducted at Sai Advantium Pharma Limited, Pune, India, in accordance with the guidelines of the Institutional Animal Ethics Committee (IAEC). Prior approval was obtained before initiation of the study (IAEC Protocol No. IAEC/PRT/006-11).
Blood samples were collected from each rat at 0.5, 1, 2, 4, 6, 8, 12, and 24 hr (oral gavage) or at 2, 4, 6, 8, 12, 24, 25, 27, 30 and 48 hr (drinking water) were collected from the retro-orbital plexus into labeled tubes, containing K2EDTA solution, as an anticoagulant. Animals were euthanized by using excess CO2 asphyxiation. […] Prior approval was obtained before initiation of the study (IAEC Protocol No. FB-14-069-R-089; IAEC-CPCSEA).
(§1) Plasma was harvested from the blood samples harvested in K2EDTA containing tubes by centrifugation at 4000 rpm for 10 min at 4 ± 2 °C and stored below -70 °C until bioanalysis. Brain tissue was homogenized with phosphate buffer saline (pH 7.4). Total homogenate volume was thrice the tissue weight. All samples were processed for analysis by precipitation using Imipramine as internal standard and analyzed with partially validated LC-MS/MS method. Pharmacokinetic parameters were calculated using the non-compartmental analysis tool of WinNonlin® Enterprise software (Pharsight Corp., USA; version 5.2).
(§2) Compound levels from 3 samples per timepoint (for a given dose and route of administration), were used to calculated pharmacokinetic parameters using the non-compartmental analysis tool of WinNonlin® Enterprise software (Pharsight Corp., USA; version 5.2).

[2] = Mouse pharmacokinetics; type: in vivo, BALB/c mice; settings: for AUC(0-inf): read-out: Plasma AUCinf; for AUC(0-t): read-out: Plasma AUClast
Description: Temperature and humidity were maintained at 22 ± 3 °C and 40-70 %, respectively and illumination was controlled to give a sequence of 12 hr light / dark cycle. The temperature and humidity were recorded by auto-controlled data logger system. All the animals were acclimatized to the experimental conditions for at least three days prior to dosing. All the animals were provided laboratory rodent diet (Vetcare India Pvt. Ltd, Bengaluru) except for overnight before treatment and 2 hr post dose. Reverse osmosis water treated with ultraviolet light was provided ad libitum. Blood samples were collected at 0, 0.05, 0.16, 0.5, 1, 2, 4, 8 & 24 hr for IV and for PO at 0, 0.25, 0.5, 1, 2, 4, 6, 8 and 24 hr post dosing. Each mouse was assigned to one of 3 subgroups and sampled at 3 timepoints. Animals were euthanized by using excess CO2 asphyxiation. The study was conducted at Sai Life Sciences Limited, Pune, India, in accordance with the guidelines of the Institutional Animal Ethics Committee (IAEC) and in accordance with the requirement of Committee for the Purpose of Control and Supervision of Experiments on Animals (CPCSEA), India. Prior approval was obtained before initiation of the study (IAEC Protocol No. IAEC/PRT/012-10; IAEC-CPCSEA).
as §1, §2

[3] = Wistar rats, oral gavage 10 mg/kg
[4] = male, rat, plasma, po, 5.6 mg/kg/day, Wistar rats, oral drinking water 0.25mg/ml (5,6 mg/kg)
[5] = male, rat, plasma, po, 10 mg/kg, Wistar rats, oral drinking water, dose normalized to 10 mg/Kg
[6] = male, rat, plasma, po, 10 mg/kg, Wistar rats, oral gavage 10 mg/kg
[7] = male, rat, plasma, po, 10 mg/kg, Wistar rats, oral gavage 10 mg/kg (second gavage column)
[8] = male, rat, plasma, po, 10 mg/kg, Wistar rats, oral gavage 10 mg/kg (second gavage column, gavage vs drinking water study)
[9] = male, rat, plasma, Wistar rats, intravenous 2 mg/kg
[10] = male, mouse, plasma, BALB/c mice, intravenous 2 mg/kg
[11] = male, mouse, plasma, BALB/c mice, oral 10 mg/kg

Which “Brain Cmax” value [1, 3] does the source give for `Nc1nnc(CN[C@@H]2C[C@H]2c2ccc(OCc3ccccc3)cc2)o1` [ORY-2001, vafidemstat] here?
Its value is 4957 ng/g.

And the Fpo [1, 3]?
The Fpo was 95%.

And the “time for brain compound levels to return to baseline” value ([1]; brain pharmacokinetics (S2A Table))?
The value was “less than 1 days”.

And the AUC(0-inf) ([1]; male, rat, plasma, iv, 2 mg/kg, Wistar rats, intravenous 2 mg/kg)?
Its AUC(0-inf) is 3910 ng·h/mL.

What about the Cmax [1, 4] of the same compound?
The Cmax was 945 ng/mL.

What about the Tmax [1, 4] of the same compound?
Its Tmax is 8.67 h.

What about the AUC(0-t) ([1]; male, rat, plasma, po, 5.6 mg/kg/day, Wistar rats, oral drinking water 0.25mg/ml (5,6 mg/kg), ad libitum 24 hr) of the same compound?
The AUC(0-t) was 12000 ng·h/mL.

What about the AUC(0-inf) [1, 4] of the same compound?
Its AUC(0-inf) is 12100 ng·h/mL.

And the Cmax [1, 5]?
Its Cmax is 1690 ng/mL.

And the Tmax [1, 5]?
The Tmax was 8.67 h.

What about the AUC(0-t) ([1]; male, rat, plasma, po, 10 mg/kg, Wistar rats, oral drinking water, dose normalized to 10 mg/Kg considering a linear behavior) of the same compound?
Its AUC(0-t) is 21500 ng·h/mL.

And the AUC(0-inf) [1, 5]?
Its AUC(0-inf) is 21700 ng·h/mL.

What about the Cmax [1, 6] of the same compound?
The Cmax was 3400 ng/mL.

What about the Tmax [1, 6] of the same compound?
Its Tmax is 0.833 h.

And the Cmax [1, 7]?
Its Cmax is 5970 ng/mL.

And the Tmax [1, 7]?
Its Tmax is 2 h.

What about the AUC(0-inf) [1, 8] of the same compound?
The AUC(0-inf) was 35600 ng·h/mL.

What about the AUC(0-t) [1, 8] of the same compound?
The AUC(0-t) was 32900 ng·h/mL.

What about the AUC(0-inf) [1, 6] of the same compound?
Its AUC(0-inf) is 21000 ng·h/mL.

What about the AUC ([1]; male, rat, plasma, po, Wistar rats, p.o. 10 mg/kg, read-out: area-under-the-curve (AUC) (converted)) of the same compound?
Its AUC is 21000 ng·h/mL.

What about the clearance [1, 9] of the same compound?
The clearance was 8.5 mL/min/kg.

What about the half-life [1, 9] of the same compound?
Its half-life is 1.87 h.

And the Vd ([1]; male, rat, plasma, Wistar rats, intravenous 2 mg/kg, read-out: Vss)?
The Vd was 1.2 L/kg.

And the half-life ([1]; male, rat, plasma, Wistar rats, oral gavage 10 mg/kg)?
The half-life was 3.28 h.

What about the “Brain Cmax” value ([2]; BALB/c mice, oral 10 mg/kg) of the same compound?
The value was 5804 ng/g.

What about the Fpo ([2]; BALB/c mice, oral 10 mg/kg) of the same compound?
Its Fpo is 75%.

And the AUC ([2]; male, mouse, plasma, po, Balb/c mice, p.o. 10 mg/kg, read-out: area-under-the-curve (AUC) (converted))?
The AUC was 17200 ng·h/mL.

And the clearance [2, 10]?
Its clearance is 6.8 mL/min/kg.

And the half-life [2, 10]?
Its half-life is 2.05 h.

What about the AUC(0-inf) [2, 10] of the same compound?
Its AUC(0-inf) is 4880 ng·h/mL.

What about the AUC(0-t) [2, 10] of the same compound?
The AUC(0-t) was 4570 ng·h/mL.

What about the Vd ([2]; male, mouse, plasma, BALB/c mice, intravenous 2 mg/kg, read-out: Vss) of the same compound?
The Vd was 1.1 L/kg.

What about the Cmax [2, 11] of the same compound?
The Cmax was 4160 ng/mL.

And the Tmax [2, 11]?
The Tmax was 0.25 h.

What about the half-life [2, 11] of the same compound?
The half-life was 2.22 h.

And the AUC(0-inf) [2, 11]?
Its AUC(0-inf) is 17200 ng·h/mL.

What about the AUC(0-t) [2, 11] of the same compound?
Its AUC(0-t) is 17200 ng·h/mL.
